Results as given in US20210052600A1, “THERAPEUTIC AGENTS FOR STRESS URINARY INCONTINENCE AND INCOTINENCE OF FECES” (Takeda Pharmaceutical Company Limited, priority 2017, published 2021).

Legend:
human 5-HT2C receptors = molecular target: T1, human 5-HT2C receptors (Homo sapiens, UniProt P28335); assay: In vitro test of agonistic potency on human 5-HT2C receptor (change in intracellular Ca2+); format: cell-based; conditions: CHO-K1 cells expressing recombinant human 5-HT2C receptors; intracellular Ca2+ (Fluo-4)
T1 construct: expressed in transfected cells; host or cells: CHO-K1 cells
T1 sequence (P28335 33-458): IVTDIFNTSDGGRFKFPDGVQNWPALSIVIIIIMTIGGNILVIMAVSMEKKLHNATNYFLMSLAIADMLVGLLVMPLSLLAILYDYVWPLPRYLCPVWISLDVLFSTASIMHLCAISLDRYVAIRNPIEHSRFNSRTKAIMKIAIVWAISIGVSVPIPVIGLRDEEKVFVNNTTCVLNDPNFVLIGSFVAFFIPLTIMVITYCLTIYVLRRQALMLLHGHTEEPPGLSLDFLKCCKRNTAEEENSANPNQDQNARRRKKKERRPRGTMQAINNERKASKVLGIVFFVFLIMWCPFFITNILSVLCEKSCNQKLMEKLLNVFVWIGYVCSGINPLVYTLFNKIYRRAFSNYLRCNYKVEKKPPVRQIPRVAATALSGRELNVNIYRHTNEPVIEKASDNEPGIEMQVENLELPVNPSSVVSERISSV

anus-closing functions = assay: Rat anus-closing functions (Anal LPP) measured by high speed infusion of saline into the rectum; format: in vivo; conditions: 5 minutes after administration, mean ± SEM
Excerpt: Thirty six female SD rats were used. After overnight fasting, rats were intraperitoneally administered with urethane for anesthesia, and isoflurane inhalation was further added during surgery. The abdomen was incised to expose the rectum, and a small incision of the rectum was made. A polyethylene catheter (SP61, Natsume) was inserted into the rectum through the rectum incision, and the tip of the catheter was positioned around 5 mm from the anal orifice. The other end of the catheter was connected with a pressure transducer and an infusion pump via three-way stopcocks, and the change in pressure in the rectum was measured using the pressure transducer, an electric signal amplifier, and an analog-to-digital converter. For administrating drugs, a polyethylene catheter (SP45, Natsume) was inserted into the femoral vein after exposing the vein by small incision.
After recovery period from surgery, while saline was infused at a speed of 0.1 mL/sec into the rectum using an infusion pump, change in the measured pressure—was observed. The infusion was stopped when the leakage of the saline from the anal orifice was observed. In the procedure, sudden decrease in the pressure was observed during the infusion with the leakage of saline from the anal orifice. The peak value of the pressure recorded in the rectum during the course of the procedures was defined as “an Anal LPP” in this Example. […] The Anal LPP was again measured in the same way 5 minutes after drug administration. The difference in Anal LPP from the Pre value (increased amount of Anal LPP) was calculated. Regarding change in Anal LPP before and after drug administration, the differences between the mean values of the drug-treated and vehicle-treated groups were analyzed by the one-tailed Williams' test or Student's t-test.

CC(C)N(C)c1cnc2c(n1)OCCNC2.Cl [Compound A′, N-methyl-N-(1-methylethyl)-6,7,8,9-tetrahydropyrazino[2,3-f][1,4]oxazeine-3-amine]
EC50 (human 5-HT2C receptors): 2.6 nM
Anal LPP Increase (anus-closing functions; 0.3 mg/kg i.v.): 6.2 ± 3.1 cmH2O
Anal LPP Increase (anus-closing functions; 1 mg/kg i.v.): 30.2 ± 9.6 cmH2O
